Measured values published in patent publication US20210290644A1, “COMPOUNDS AND METHODS FOR TREATING FUNGAL INFECTIONS” (Amplyx Pharmaceuticals, Inc., priority 2018, published 2021).
Values after ≈ are worked out from the molar mass of the structure shown. “Also recorded” adds a separate entry of the source. Like-named read-outs stand apart in the source and are kept apart here.

Tests used:
[1] = Additional Phase 1 study of Compound 1: IV loading, IV maintenance, then oral through Day 42, safety; format: in vivo, human; settings: 1000 mg IV 3-hour BID Day 1, 600 mg IV 3-hour QD Days 2-7, 800 mg orally QD Days 8-42
[2] = Compound 1 pH solubility at room temperature; format: physicochemical
[3] = Compound 1 Injection 20 mg/mL batch analysis and stability (appearance, HPLC assay, related substances, pH, particulate matter); format: physicochemical; settings: 72-hour stability data at 20 mg/mL
Method: The HPLC method used in the stability studies for Compound 1 Injections, 20 mg/mL is a specific and stability-indicating method used for the determination of assay, related substances, content uniformity, identification, and absence of Compound 1 in Compound 1 Injection at 20 mg/mL. The method is a gradient reverse phase HPLC system to measure assay, purity, and related substances. The assay (% w/w) is determined by comparing the peak response of the sample to that of a standard. The same HPLC method used for purity and related substances is used to measure related substances. Related substances to Compound 1 drug substance are reported as area percent. The area of an impurity is divided by the total area of all sample-related peaks. Related substances are reported by retention time relative to the parent peak (RRT).
Compound 1 Injection, 20 mg/mL, was prepared as a non-buffered solution suitable for Phase 1 clinical studies containing Compound 1, sodium chloride, and pH adjustment using hydrochloric acid and/or sodium hydroxide to pH 7.5. […] Samples have been analyzed for appearance, assay, related substance, and pH. Compound 1 Injection, engineering batch #707 manufactured under GMP was placed on an ICH stability program at 5° C. and 25° C./60% RH. Samples have been analyzed for appearance, assay, related substance, particulate matter, and pH. […]

[4] = pH stability of Compound 1 in buffer solutions stored at 40° C.; format: physicochemical; settings: buffer solutions pH 7-8, stored at 40° C., up to seven days
Method: The pH stability in buffer solutions were also evaluated for pH levels 7, 8, and 9 when stored at 40° C.

[5] = Study #2 Phase 1: pharmacokinetics after single IV and single/multiple oral doses of Compound 1, absolute oral bioavailability; settings: Cohort 1A, Period A, 200 mg IV;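 also: phase 1 study design: one IV dose, then escalating single oral doses, fed versus fasted single oral dosing, and once-daily oral dosing over 14 days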
Source text: In the single ascending dose (SAD) phase, subjects in Cohort 1a received a single IV dose in Period A and then rising single oral doses in Periods B to D. Subjects in Cohort 1b received a single oral dose under fed and fasted conditions in Periods E and F. Subjects in Cohorts 2 and 3 received once-daily oral doses for 14 days, as did subjects in Cohort 4 as part of an in vivo screen for drug-drug interaction (DDI) potential.
For SAD Cohorts 1a and 1b, urine samples for the determination of Compound 1A were collected through 48 hrs after dosing.
Forty-six (46) subjects were enrolled into the study, 8 in Cohort 1a, 10 in Cohort 1b, and 8 each in Cohorts 2 and 3.

[6] = Binary excipient compatibility study of Compound 1; format: physicochemical; settings: binary mixtures, after 3 weeks at either storage condition
Method: For each excipient screened, there were […] (5° C., room temperature, 40° C./75% RH, 50° C.) that could be pulled at 3 weeks or 4 weeks as shown in Table 85. For contingency, one vial was stored at each condition per excipient. At each time point, an appropriate active sample control vial from each condition was reconstituted and analyzed in addition to the compatibility samples.

[7] = Study #1 Phase 1: safety and tolerability (TEAEs) of IV Compound 1
Method: This was a Phase 1, first-in-human, randomized, double-blind, placebo-controlled single ascending dose (SAD) and multiple ascending dose (MAD) escalation study of 120 healthy male and female subjects.
(§1) In the single ascending dose (SAD) phase, Cohorts 1 to 6 and 11A to 11D received single doses. For Cohorts 11A to 11D, the infusion time varied from 0.5 to 3 hours to evaluate the relationship between C., and tolerability. In the multiple ascending dose (MAD) phase, Cohorts 7 to 10 received multiple doses over 14 days, and Cohort 12 examined the feasibility of a loading dose regimen.

[8] = system: Candida (C. albicans, C. glabrata, or C. auris); assay: PK-PD studies in immunocompromised mice infected with Candida (fungal burden, CFUs in the kidney); format: in vivo; settings: dose fractionations
Method: In PK-PD studies, immunocompromised mice were infected with one of three spp. of Candida (C. albicans, C. glabrata, or C. auris) and groups of animals were dosed with Compound 1 at different dose fractionations. […] The stasis endpoint was defined as the quantity of Candida spp. in CFUs just prior to Compound 1 administration compared to CFUs at the endpoint of assessment (i.e., 24 hours for C. albicans; 96 hours for C. glabrata and C. auris).
In pharmacokinetic/pharmacodynamic (PK-PD) studies, immunocompromised mice were infected with one of three spp. of Candida (C. albicans, C. glabrata, or C. auris) and groups of animals were dosed with Compound 1 at different dose fractionations.

[9] = in vivo
Source text: This was a Phase 1, first-in-human, randomized, double-blind, placebo-controlled single ascending dose (SAD) and multiple ascending dose (MAD) escalation study of 120 healthy male and female subjects. The objectives of the study were to evaluate the safety, tolerability, and pharmacokinetics of single and multiple doses of Compound 1 administered by intravenous (IV) infusion.
as §1
Blood samples for the determination of Compound 1 and Compound 1A plasma concentrations were collected before and at appropriate times during all single- and multiple-dose administrations of Compound 1. For SAD Cohorts 1 to 6, urine samples for the determination of Compound 1A were collected through 48 hrs after dosing.
Eighty (80) subjects were enrolled into SAD Cohorts 1 to 6 and 11A to 11D. Within each cohort, six subjects were randomized to Compound 1 and two subjects to placebo. All 60 subjects randomized to Compound 1 completed dosing. Fifty-nine (59) subjects completed the study.
Forty (40) subjects were enrolled into MAD Cohorts 7 to 10 and Loading Dose Cohort 12. Within each cohort, six subjects were randomized to Compound 1 and two subjects to placebo.
The PK analysis population therefore consisted of 60 subjects in the SAD phase and 28 subjects in the MAD phase.

[10] = 1000 mg/0.5 hr IV single dose group
[11] = 1000 mg/1 hr IV single dose group
[12] = 1000 mg/2 hr IV single dose group
[13] = 1000 mg/3 hr IV single dose group
[14] = Cohort 12 loading dose regimen (1000 mg IV 2-hour twice on Day 1 + 600 mg IV 1-hr QD Days 2-7)
[15] = 100 mg sd oral treatment period
[16] = 300 mg sd oral treatment period
[17] = 500 mg sd oral treatment period

Compound: Nc1c(-c2cc(Cc3ccc(COc4ccccn4)cc3)no2)ccc[n+]1COP(=O)([O-])O [Compound 1]
- safety and tolerability [1]: safe and well tolerated
- solubility ([2]; 50 mM phosphate buffer, pH 7.5, aqueous buffer, Study B, pH 7.5 (50 mM phosphate buffer)): 141000 µg/mL (≈ 301 mM)
- solubility ([2]; pH 1, simulated gastric fluid, Study A, pH 1): 3830 µg/mL (≈ 8.18 mM)
- solubility ([2]; pH 3, aqueous buffer, Study A, pH 3): 111 µg/mL (≈ 0.237 mM)
- solubility ([2]; pH 4, aqueous buffer, Study A, pH 4): 63 µg/mL (≈ 0.134 mM)
- solubility ([2]; pH 5, aqueous buffer, Study A, pH 5): 125 µg/mL (≈ 0.267 mM)
- solubility ([2]; pH 6, aqueous buffer, Study A, pH 6): 758 µg/mL (≈ 1.62 mM)
- solubility ([2]; pH 6.5, aqueous buffer, Study B, pH 6.5): 4300 µg/mL (≈ 9.18 mM)
- solubility ([2]; pH 7, aqueous buffer, Study A, pH 7, saturation not achieved): > 17600 µg/mL
- solubility ([2]; pH 7, aqueous buffer, Study B, pH 7.0): 53700 µg/mL (≈ 115 mM)
- solubility ([2]; pH 7.5, aqueous buffer, Study A, pH 7.5, saturation not achieved): > 28500 µg/mL
- solubility ([2]; pH 8.5, aqueous buffer, Study A, pH 8.5, saturation not achieved): > 80000 µg/mL
- solubility ([2]; phosphate buffer, pH 7, aqueous buffer, Study B, pH 7.0 (with phosphate buffer)): 20900 µg/mL (≈ 44.6 mM)
- degradation [3]: < 0.10%
- change in potency [4]: < 3%
- time after IV infusion through which prodrug plasma concentrations were ≥LOQ [5]: ≤ 4 h
- compatibility with excipients (total purity profile) [6]: compatible with the tested excipients
- number of TEAEs [7, 10]: 21 TEAEs
- subjects reporting TEAEs [7, 10]: 100%
- number of TEAEs [7, 11]: 25 TEAEs
- subjects reporting TEAEs [7, 11]: 100%
- number of TEAEs [7, 12]: 22 TEAEs
- subjects reporting TEAEs [7, 12]: 100%
- number of TEAEs [7, 13]: 13 TEAEs
- subjects reporting TEAEs [7, 13]: 83%
- number of TEAEs [7, 14]: 38 TEAEs
- subjects reporting TEAEs [7, 14]: 100%
- maximum tolerated dose (MTD) ([7]; Study #1 and Study #2): not determined/not reached
- severe TEAEs or SAEs ([7]; Study #1 and Study #2): no severe or very severe TEAEs or SAEs reported
- dose-limiting toxicities ([7]; Study #1 and Study #2 (two Phase 1 studies)): no dose-limiting toxicities observed; also recorded: No DLTs were observed
- tolerability ([7]; all single and multiple IV and oral doses, Study #1 and Study #2): well tolerated
- safety and tolerability ([7]; faster infusions (single dose: 2, 1 and 0.5 hrs; multiple dose: 1 hr)): safe and well tolerated
- safety and tolerability ([7]; loading dose 1000 mg IV twice on Day 1 (2-hr infusion), maintenance 600 mg QD): safe and well tolerated
- tolerability ([7]; multiple IV doses up to 600 mg once daily for 14 consecutive days): well tolerated by the majority of subjects
- tolerability ([7]; single IV doses up to 350 mg over 3 hours and 1000 mg over 0.5-, 1-, 2-, 3-hour infusions): well tolerated
- PK-PD variable that best correlated with antifungal efficacy (fungal burden, CFUs in the kidney) [8]: AUC/MIC ratio
- exposures to the prodrug relative to those of the active Compound 1A ([9]; both, human, iv): < 5%
- time after start of infusion by which prodrug concentrations are <LOQ ([9]; both, human, iv): at most 8 hrs
- accumulation of prodrug following multiple dosing [9]: essentially no accumulation
- number of TEAEs [15]: 2 TEAEs
- subjects reporting TEAEs [15]: 33%
- number of TEAEs (200 mg sd IV treatment period): 3 TEAEs
- subjects reporting TEAEs (200 mg sd IV treatment period): 50%
- number of TEAEs [16]: 6 TEAEs
- subjects reporting TEAEs [16]: 50%
- number of TEAEs (500 mg md oral group): 24 TEAEs
- subjects reporting TEAEs (500 mg md oral group): 83%
- number of TEAEs [17]: 1 TEAE
- subjects reporting TEAEs [17]: 17%
- safety and tolerability (1000 mg PO QD on Days 1 through 14): safe and well tolerated
- number of TEAEs (1000 mg md oral group): 119 TEAEs
- subjects reporting TEAEs (1000 mg md oral group): 100%
- deaths or SAEs (Study #2): no deaths or SAEs reported
- dose-limiting toxicities (DLTs) (Study #2): No DLTs were observed
- maximum tolerated dose (MTD) (Study #2): not determined/reached
- safety and tolerability (all doses in Study #2): safe and well tolerated
- tolerability (multiple oral doses of 500 mg and 1000 mg once daily for 14 consecutive days): well tolerated by the majority of subjects
- tolerability (single IV doses of 200 mg and single oral doses 100 mg to 500 mg): well tolerated
- effect of dosing under fed conditions on tolerability (single-dose crossover food effect cohort, TEAEs related to Gastrointestinal and Nervous System Disorders): improve tolerability
